Calls of active or inactive are those of the source. The rule behind the calls is not given here.
How the values were obtained:
[1] = system: Mus musculus; experiment: In vivo inverse agonist activity at CB1 receptor in C57 mouse assessed as reduction in CP55940-induced inhibition of upper gastrointestinal motility at 10 mg/kg, po after 2 hrs; format: functional, organism-based
[2] = target: Cannabinoid receptor 1 (Homo sapiens, UniProt P21554); experiment: Inverse agonist activity at human CB1 receptor expressed in HEK293 cells assessed as forskolin-stimulated cAMP accumulation after 30 mins by HTRF assay; format: functional, cell-based
[3] = species: Homo sapiens; experiment: Selectivity index, ratio of EC50 for human CB2 receptor expressed in HEK293 cells to EC50 for human CB1 receptor expressed in HEK293 cells; format: cell-based
[4] = Ratio of drug level in brain to plasma in C57BL/6J mouse at 20 mg/kg, po measured after 1 hr; format: ADME, organism-based; settings: brain and plasma
[5] = Ratio of drug level in brain to plasma in C57BL/6J mouse at 20 mg/kg, po measured after 4 hr; format: ADME, organism-based; settings: brain and plasma

Sequence of Cannabinoid receptor 1 (P21554 whole entry): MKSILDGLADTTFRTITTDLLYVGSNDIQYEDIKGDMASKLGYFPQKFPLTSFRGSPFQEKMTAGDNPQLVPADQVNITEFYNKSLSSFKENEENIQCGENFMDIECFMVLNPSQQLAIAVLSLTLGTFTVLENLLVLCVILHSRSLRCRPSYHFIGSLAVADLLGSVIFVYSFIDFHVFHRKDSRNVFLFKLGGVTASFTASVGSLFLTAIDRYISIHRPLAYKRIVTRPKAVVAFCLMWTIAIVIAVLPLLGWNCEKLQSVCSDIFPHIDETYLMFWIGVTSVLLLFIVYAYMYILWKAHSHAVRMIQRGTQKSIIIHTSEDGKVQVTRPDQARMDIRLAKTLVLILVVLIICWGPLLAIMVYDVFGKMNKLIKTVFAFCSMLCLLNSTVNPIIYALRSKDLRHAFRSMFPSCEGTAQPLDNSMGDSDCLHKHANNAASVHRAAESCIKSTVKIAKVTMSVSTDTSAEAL

SMILES | Activity [1] | EC50 [2] [nM] | Ratio EC50 [3] | Kp at 1 h [4] | Kp at 1 h [5]
Cc1c(C(=O)NN2CCCCC2)nn(-c2ccc(Cl)cc2Cl)c1-c1ccc(Cl)cc1 | Active | – | – | – | –
O=C(NC(CO)(CO)CO)c1ccc(S(=O)(=O)N2CCC(Nc3ncnc4ccc(C(c5ccc(Cl)cc5)c5ccc(Cl)cc5)cc34)CC2)cc1 | – | 7.8 | – | – | –
O=S(=O)(N1CCC(Nc2ncnc3ccc(C(c4ccc(Cl)cc4)c4ccc(Cl)cc4)cc23)CC1)C(F)(F)F | – | 4.6 | 170 | 0.02 | 0.08

Source: ChEMBL document CHEMBL4665918, “Discovery of PEGylated 6-Benzhydryl-4-amino-quinazolines as Peripherally Restricted CBR Inverse Agonists” (ACS Med Chem Lett, 2020)
